Measurements published in article PMC8097418, “In Vitro and In Vivo Antibacterial Activities of a Novel Quinolone Compound, OPS-2071, against Clostridioides difficile” (Antimicrobial Agents and Chemotherapy, 2021).
In brackets after ≈: the same amount, converted by molar mass.

Tests used:
C. difficile ATCC 700057 [1] = assay: Postantibiotic effect (PAE); format: cell-based, Clostridioides difficile; conditions: for Postantibiotic effect: 1 h exposure
Method: C. difficile ATCC 700057 was cultured in GAM agar and adjusted in GAM broth to approximately 10^6 CFU/ml. The bacterial suspensions were preincubated at 37°C for 1 h. […] After preincubation, test and reference solutions were added to each bacterial suspension in a test tube, and the suspensions were cultured for 1 h. After exposure to the test compounds, bacterial suspensions were washed with GAM broth and cultured for 6 h. […] The PAE was defined according to Craig and Gudmundsson as PAE = T − C, where T is the time required for the viable counts of the exposed bacteria to increase by 1 log10 above the counts observed immediately after washing, and C is the corresponding time for the antibiotic unexposed controls ([44]).

[2] = Pharmacokinetics in the hamster (cecal contents); format: in vivo, male Syrian hamsters; conditions: male, Syrian, 2 mg/kg oral
Method: OPS-2071 was orally administered at 2 mg/kg to male Syrian hamsters, and the cecal contents were collected 0.5, 1, 2, 4, 8, 24, 48, and 72 h postdose (n = 5 for each time point). After homogenizing with saline and treatment using acetonitrile-formic acid (100:1 [vol/vol]), the OPS-2071 concentration in cecal contents was determined using a validated liquid chromatography-electrospray ionization-tandem mass spectrometry (LC-ESI-MS/MS) method. The mass spectrometer 4000 QTRAP (AB Sciex Pte. Ltd.) and high-performance liquid chromatography Prominence UFLC system (Shimadzu Corp.) were used. The pharmacokinetic (PK) parameters (Cmax) were determined with WinNonlin professional software version 6.3, (Pharsight Corp.).

C. difficile ATCC 700057 [3] = assay: Effect of pH on MIC (agar dilution); format: cell-based, Clostridioides difficile; conditions: for MIC: Clostridioides difficile
[4] = target: DNA gyrase of C. difficile (Clostridioides difficile, UniProt Q18C89+Q18C90); assay: biochemical
Chain of DNA gyrase of C. difficile (Q18C90 entry or part of it): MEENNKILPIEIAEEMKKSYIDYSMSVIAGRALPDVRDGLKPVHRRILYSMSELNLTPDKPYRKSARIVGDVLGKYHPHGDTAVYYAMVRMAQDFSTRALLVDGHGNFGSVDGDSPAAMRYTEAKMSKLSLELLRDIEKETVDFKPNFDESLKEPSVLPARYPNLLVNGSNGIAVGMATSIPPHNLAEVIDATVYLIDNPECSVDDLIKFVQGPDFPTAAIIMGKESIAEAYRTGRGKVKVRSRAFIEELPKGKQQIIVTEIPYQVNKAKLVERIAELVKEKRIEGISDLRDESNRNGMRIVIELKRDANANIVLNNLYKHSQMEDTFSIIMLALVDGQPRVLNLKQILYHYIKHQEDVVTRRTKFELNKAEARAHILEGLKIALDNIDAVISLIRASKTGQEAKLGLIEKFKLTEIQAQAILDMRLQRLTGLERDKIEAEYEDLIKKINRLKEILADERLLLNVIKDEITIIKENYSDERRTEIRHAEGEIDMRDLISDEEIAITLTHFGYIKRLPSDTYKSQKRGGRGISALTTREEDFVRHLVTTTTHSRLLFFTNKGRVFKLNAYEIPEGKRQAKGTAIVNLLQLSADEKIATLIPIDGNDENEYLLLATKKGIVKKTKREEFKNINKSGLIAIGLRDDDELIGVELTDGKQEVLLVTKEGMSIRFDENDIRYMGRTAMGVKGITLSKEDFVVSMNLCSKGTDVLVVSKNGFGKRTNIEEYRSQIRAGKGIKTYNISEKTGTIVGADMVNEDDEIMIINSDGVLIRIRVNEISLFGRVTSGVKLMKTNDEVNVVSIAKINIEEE
Chain of DNA gyrase of C. difficile (Q18C89 entry or part of it): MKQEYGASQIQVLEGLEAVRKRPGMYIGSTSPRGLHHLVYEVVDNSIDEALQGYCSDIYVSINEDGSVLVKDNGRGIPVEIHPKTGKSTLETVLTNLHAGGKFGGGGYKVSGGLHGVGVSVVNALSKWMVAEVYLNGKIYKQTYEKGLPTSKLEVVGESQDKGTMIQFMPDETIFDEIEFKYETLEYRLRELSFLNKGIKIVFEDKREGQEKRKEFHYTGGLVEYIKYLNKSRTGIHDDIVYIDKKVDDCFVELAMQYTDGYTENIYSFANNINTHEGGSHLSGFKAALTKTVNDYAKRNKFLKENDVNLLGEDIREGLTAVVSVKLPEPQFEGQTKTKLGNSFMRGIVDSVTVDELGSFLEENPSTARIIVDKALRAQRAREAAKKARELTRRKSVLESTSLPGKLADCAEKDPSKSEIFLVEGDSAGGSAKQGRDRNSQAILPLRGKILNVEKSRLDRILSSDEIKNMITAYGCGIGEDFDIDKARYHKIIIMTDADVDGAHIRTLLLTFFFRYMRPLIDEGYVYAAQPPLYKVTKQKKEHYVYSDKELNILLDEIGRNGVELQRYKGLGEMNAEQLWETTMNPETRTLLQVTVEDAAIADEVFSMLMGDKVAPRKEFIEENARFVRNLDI

Cc1c(-c2cnc(N)c(C#N)c2)c(F)cc2c(=O)c(C(=O)O)cn(C3CC3)c12 [OPS-2071, 7-(6-amino-5-cyanopyridin-3-yl)-1-cyclopropyl-6-fluoro-8-methyl-4-oxo-1,4-dihydroquinoline-3-carboxylic acid]
PAEs at 4- and 8-fold the MIC (C. difficile ATCC 700057 [1]; 4- and 8-fold the MIC): 3.93 to 4.04 h
Postantibiotic effect (C. difficile ATCC 700057 [1]; 4× MIC): 3.93 h
Postantibiotic effect (C. difficile ATCC 700057 [1]; 8× MIC): 4.04 h
concentration at 24 h ([2]; 24 h, read-out: concentration in the cecal contents at 24 h postdose): 1840 ng/g
Cmax ([2]; reached at 4 h postdose, read-out: maximum concentration (Cmax) in the cecal contents): 43000 ng/g
MIC (C. difficile ATCC 700057 [3]; ATCC700057, pH 6): 0.016 µg/mL (≈ 0.0423 µM)
MIC (C. difficile ATCC 700057 [3]; ATCC700057, pH 7): 0.016 µg/mL (≈ 0.0423 µM)
MIC (C. difficile ATCC 700057 [3]; ATCC700057, pH 8): 0.03 µg/mL (≈ 0.0793 µM)
influence of pH on MICs (C. difficile ATCC 700057 [3]; pH 6 to 8): not influenced by pH
IC50 [4]: 0.608 µM
